The values below come from ChEMBL document CHEMBL1142758, “Neuroprotective effects of naturally occurring biflavonoids” (2005).

Assay type in all cases: functional
The nature of assay [1]: Protective effect of compound on Ab25 35-induced cell death in SH-SY5Y cells (concentration = 4 uM).
Assay [2] can be described thus: Protective effect of compound on Ab25 35-induced cell death in SH-SY5Y cells (concentration = 10 uM).
Assay [3] can be described thus: Protective effect of compound on SNP-induced cell death in SH-SY5Y cells (concentration = 10 uM).
A short description of assay [4]: Protective effect of compound on hydrogen peroxide-induced cell death in SH-SY5Y cells (concentration = 10 uM).
Assay [5] is described as follows: Protective effect of compound on SNP-induced cell death in SH-SY5Y cells (concentration = 2 uM).
Assay [6] in a line: Protective effect of compound on Ab25 35-induced cell death in SH-SY5Y cells (concentration = 0.2 uM).
The nature of assay [7]: Protective effect of compound on hydrogen peroxide-induced cell death in SH-SY5Y cells (concentration = 0.4 uM).
Assay [8] can be described thus: Protective effect of compound on SNP-induced cell death in SH-SY5Y cells (concentration = 0.4 uM).
Assay [9] is described as follows: Protective effect of compound on hydrogen peroxide-induced cell death in SH-SY5Y cells (concentration = 2 uM).
Assay [10] in a line: Protective effects of test compounds on Ab25 35-induced cell death in SH-SY5Y cells (concentration = 10 uM).
The nature of assay [11]: Protective effect of test compound on hydrogen peroxide-induced cell death in SH-SY5Y cells (concentration = 2 uM).
A short description of assay [12]: Protective effect of test compound on Ab25 35-induced cell death in SH-SY5Y cells (concentration = 4 uM).
The nature of assay [13]: Protective effect of test compound on SNP-induced cell death in SH-SY5Y cells (concentration = 2 uM).
Assay [14] is described as follows: Protective effect of test compound on SNP-induced cell death in SH-SY5Y cells (concentration = 10 uM).
Assay [15] can be described thus: Protective effect of test compound on SNP-induced cell death in SH-SY5Y cells (concentration = 0.4 uM).
Assay [16] in a line: Protective effect of test compound on Ab25 35-induced cell death in SH-SY5Y cells (concentration = 10 uM).
Assay [17] can be described thus: Protective effect of test compound on Ab25 35-induced cell death in SH-SY5Y cells (concentration = 0.2 uM).
Assay [18] is described as follows: Protective effect of compound on compounds on SNP-induced cell death in SH-SY5Y cells (concentration = 0.4 uM).

As to `O=c1cc(-c2ccc(Oc3cc(-c4cc(=O)c5c(O)cc(O)cc5o4)ccc3O)cc2)oc2cc(O)cc(O)c12` [OCHNAFLAVONE], the Inhibition in [1] was -32.1%; in [2], -1.9%; in [3] it was 9.3%; in assay [4] it was -32.7%; in assay [5] it was 7.7%; in assay [6], -12.7%. Further, the Inhibition is -3.6% in assay [7], 10% in [8] and -12.1% in assay [9].
For `COc1ccc(-c2cc(=O)c3c(O)cc(O)cc3o2)cc1Oc1ccc(-c2cc(=O)c3c(O)cc(O)cc3o2)cc1`, the Inhibition in assay [1] was 0.9%; in assay [2], 14.8%; in [3], 1.6%; in assay [4] it was 12.1%; in assay [5], 0.1%; in [6], 13%. The figures for the Inhibition in [7], in assay [8] and in assay [9] were 1.8%, 2.9% and -1.2%, respectively.
Take `COc1ccc(C2=CC(=O)C3C(O)=CC(O)=C(c4cc(-c5cc(=O)c6c(O)cc(O)cc6o5)ccc4OC)C3O2)cc1` (stereo unspecified): the Inhibition came to 59.1% in assay [1]; 43.8 µM in assay [2]; 23.5% in assay [3]; 55.1% in assay [4]; 10.5% in assay [5]; 19.7% in [6]. Further, the Inhibition in [7] stood at 40.1%; in assay [8] it was 6.9%; in [9], 28.7%.
On to `COc1ccc(C2=CC(=O)C3C(O)=CC(O)=C(c4cc(-c5cc(=O)c6c(O)cc(OC)cc6o5)ccc4OC)C3O2)cc1` (stereo unspecified), for which the Inhibition was 38.1% in [1]; 4.6% in [3]; 69.5% in assay [4]; 8.1% in [5]; 35.1 µM in [10]; 27.1% in [6]. Moreover, the figures for the Inhibition in assay [7], in assay [8] and in assay [9] were 39.5%, 28.5% and 52.1%, respectively.
With `COC1=CC2OC(c3ccc(O)cc3)=CC(=O)C2C(O)=C1Oc1ccc(-c2cc(=O)c3c(O)cc(O)cc3o2)cc1` (stereo unspecified), the Inhibition in assay [1] is 11%; in assay [2] it was -0.2%; in assay [3] it was -25%; in assay [4], 68.1%; in assay [5] it was -14.8%; in assay [6], 18%. Besides, the Inhibition was -3.5% in assay [7], -16% in assay [8] and 23.9% in assay [9].
Regarding `O=C1C=C(c2ccc(O)cc2)OC2C(c3cc(-c4cc(=O)c5c(O)cc(O)cc5o4)ccc3O)=C(O)C=C(O)C12` (stereo unspecified), the Inhibition was 39.9 µM in [11]; 25.4 µM in [12]; 16.4 µM in [13]; 62% in assay [4]; 27% in [7]; 40.5 µM in assay [14]. Besides, the Inhibition in assay [15] came out at 5.2 µM; in assay [16], 31.8 µM; in assay [17], 3.6 µM.
Consider `COc1ccc(-c2cc(=O)c3c(O)cc(O)cc3o2)cc1C1=C(O)C=C(O)C2C(=O)C=C(c3ccc(O)cc3)OC12` (stereo unspecified), for which the Inhibition was 1.9% in [1]; -7.5% in assay [2]; 11% in [3]; 62.9% in assay [4]; 4.8% in [5]; 9.8% in assay [6]. Besides, the figures for the Inhibition in [7], in [8] and in assay [9] were 25.3%, 2.5% and 30.4%, respectively.
With `O=C1C=C(c2ccc(O)cc2)OC2C=C(O)C(Oc3ccc(-c4cc(=O)c5c(O)cc(O)cc5o4)cc3)=C(O)C12` (stereo unspecified), the Inhibition in assay [1] was -19.9%; in assay [2], -10%; in [3], 15%; in [4], 56%; in assay [5] it was -9.4%; in [6] it was 8.7%. The Inhibition in [7] was determined as 7.8%; in [8], 2.5%; in assay [9], 19.8%.
Regarding `COc1cc(O)c2c(=O)cc(-c3ccc(OC)c(C4=C(O)C=C(O)C5C(=O)C=C(c6ccc(O)cc6)OC45)c3)oc2c1` (stereo unspecified), the Inhibition in assay [1] is 43.6%; in [2], 5.6%; in assay [3], 32.4%; in assay [4], 35.7%; in assay [5], 7.8%; in assay [6] it was 29.5 µM. Further, the Inhibition is 11.3% in [7], -0.1 µM in assay [18] and 12.2% in [9].
